Data on 1 compound can be found in publication PMC7070167, “Cell‐permeable high‐affinity tracers for Gq proteins provide structural insights, reveal distinct binding kinetics and identify small molecule inhibitors” (British Journal of Pharmacology, 2020).

Read-outs that look alike come from different tables or passages of the source. *1 amine or outer side, *2 acyl side, *3 side chain or, on linkers, in order; H or OH if unused. Where a SMILES comes first, the peptide text is derived from it. Bridges are numbered along the chain shown (N, C = ends). [ ]: non-standard residue; d: D form. The star is where a group is joined. Leu(3R-OH,Nα-propionyl) = CCC(=O)N[C@H](C(=O)*)[C@H](O)C(C)C; X1 = CC(C)[C@@H](O[*:3])[C@H](N[*:1])C(=O)[*:2]; NMeT = CN[C@H](C(=O)O)[C@@H](C)O; dPhLac = O=C(O)[C@H](O)Cc1ccccc1; NMeA = CN[C@@H](C)C(=O)O; NMeDha = C=C(NC)C(=O)O

The experiment deals with T1, Gq proteins (Homo sapiens, UniProt P50148).
T1 construct: Native cell membrane preparations from rat brain cortex and human blood platelets; host or cells: human platelets (intact suspension or membrane preparation)
T1 sequence (P50148 1-359): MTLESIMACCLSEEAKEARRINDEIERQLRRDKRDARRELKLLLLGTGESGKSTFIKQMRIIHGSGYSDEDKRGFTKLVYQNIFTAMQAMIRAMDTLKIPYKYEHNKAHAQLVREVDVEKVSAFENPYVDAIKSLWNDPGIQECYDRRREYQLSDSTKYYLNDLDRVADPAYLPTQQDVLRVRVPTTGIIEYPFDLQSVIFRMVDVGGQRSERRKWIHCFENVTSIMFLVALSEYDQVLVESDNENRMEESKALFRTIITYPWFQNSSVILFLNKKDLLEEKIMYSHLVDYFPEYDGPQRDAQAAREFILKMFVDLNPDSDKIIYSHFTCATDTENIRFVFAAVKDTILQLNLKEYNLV
In words: High-throughput (96-well) competition binding assay at human platelet membranes. As to conditions: for Ki: versus [³H]PSB-15900 (5 nM), high-throughput 96-well format, 37°C. How it is done:
The experiments were performed in 50‐mM Tris–HCl buffer, pH 7.4. The final assay volume of 200 μl contained 5 μl of test compound in DMSO, 50 μl of [^3H]PSB‐15900 or [^3H]PSB‐16254, respectively, in buffer, 5 nM of final concentration, and 100 μl of human platelet membrane preparation (50 μg of protein) or intact human platelets (7.5 × 10^6 cells/vial). Non‐specific binding was determined in the presence of 5‐μM FR. The incubation was started by the addition of membrane preparation and was performed at 37°C for 1 hr with gentle shaking. It was terminated by rapid vacuum filtration through GF/C glass‐fibre filters using a Brandel 24‐well harvester. The filters were rinsed three times with approximately 3 ml each of ice‐cold Tris–HCl buffer, 50 mM, pH 7.4 containing 0.1% Tween 20 and 0.1% BSA, to separate bound from free radioligand. The filters were punched out and transferred to scintillation vials. Luma Safe® scintillation cocktail (2.5 ml) was added, and after 6 hr of incubation, the samples were counted for 1 min each, using a liquid scintillation counter (counting efficiency 53%). Experiments in the presence of GTP were additionally performed after preincubation of the membrane preparation with GTP for 1 hr. pIC50 and pKi values were calculated using equations for one‐site competition as implemented in GraphPad Prism 6.01 (GraphPad Inc., La Jolla, CA, USA).
Competition binding experiments were performed as described above (for incubation conditions, washing steps, and buffers) but on 96‐well plates using a Brandel 96‐well plate harvester with GF/C Unifilters (Perkin‐Elmer). After harvesting, 50 μl per cavity of Ultima Gold scintillation cocktail (Perkin‐Elmer) was added, and counting was performed as described above.

Turning to `C=C1C(=O)N[C@@H](C)C(=O)N(C)[C@@H](C)C(=O)N[C@@H]([C@H](OC(=O)[C@@H](NC(=O)CC)[C@H](O)C(C)C)C(C)C)C(=O)N(C)[C@@H]([C@@H](C)OC)C(=O)O[C@H](C(C)C)[C@H](NC(C)=O)C(=O)O[C@H](Cc2ccccc2)C(=O)N1C` [FR, FR900359] (Ac-[X1][dPhLac][NMeDha]A[NMeA][X1](Leu(3R-OH,Nα-propionyl))[NMeT](Me); ester 1-C), the “inhibition of radioligand binding (positive control)” value (1 μM, 96‐well plates) is “complete inhibition”. Moreover, the Ki (read-out: Ki) amounted to 6.56 ± 1.92 nM and the Ki (read-out: pKi (converted)) was 6.46 nM.
